The text below walks through data of ChEMBL document CHEMBL3822373, “An evolved oxazolidinone with selective potency against Mycobacterium tuberculosis and gram positive bacteria” (2016).

For the assay, the system named is Mycobacterium tuberculosis. Nature of the assay: Antibacterial activity against Mycobacterium tuberculosis H37Rv assessed as frequency of spontaneous resistant mutant at 5 and 10 times MIC90 measured after 5 weeks. The class given is functional, organism-based.

Active and inactive are the calls of the source. No cut-off for these calls is given here.

Consider `CC(=O)NC[C@H]1CN(c2ccc3c(c2)Oc2ccccc2O3)C(=O)O1`, for which the result was inactive.
